Results published in ChEMBL document CHEMBL1155858, “Derivatives of (3S)-N-(biphenyl-2-ylmethyl)pyrrolidin-3-amine as selective noradrenaline reuptake inhibitors: Reducing P-gp mediated efflux by modulation of H-bond acceptor capacity” (Bioorg Med Chem Lett, 2008).

Columns and labels:
[1] = Dissociation constant, pKa of the compound; assay type: physicochemical
[2] = Apparent permeability from apical to basolateral side of the MDCK cells expressing MDR1 gene; assay type: ADME, cell-based, Canis lupus familiaris; details: dog
[3] = Ratio of permeability from basolateral to apical side over apical to basolateral side of MDCK cells expressing MDR1 gene; details: dog
[4] = target: Sodium-dependent dopamine transporter (Homo sapiens, UniProt Q01959); experiment: Inhibition of [3H]dopamine reuptake at human DAT expressed in HEK293 cells by SPA; assay type: cell-based
Sequence of Sodium-dependent dopamine transporter (Q01959 whole entry): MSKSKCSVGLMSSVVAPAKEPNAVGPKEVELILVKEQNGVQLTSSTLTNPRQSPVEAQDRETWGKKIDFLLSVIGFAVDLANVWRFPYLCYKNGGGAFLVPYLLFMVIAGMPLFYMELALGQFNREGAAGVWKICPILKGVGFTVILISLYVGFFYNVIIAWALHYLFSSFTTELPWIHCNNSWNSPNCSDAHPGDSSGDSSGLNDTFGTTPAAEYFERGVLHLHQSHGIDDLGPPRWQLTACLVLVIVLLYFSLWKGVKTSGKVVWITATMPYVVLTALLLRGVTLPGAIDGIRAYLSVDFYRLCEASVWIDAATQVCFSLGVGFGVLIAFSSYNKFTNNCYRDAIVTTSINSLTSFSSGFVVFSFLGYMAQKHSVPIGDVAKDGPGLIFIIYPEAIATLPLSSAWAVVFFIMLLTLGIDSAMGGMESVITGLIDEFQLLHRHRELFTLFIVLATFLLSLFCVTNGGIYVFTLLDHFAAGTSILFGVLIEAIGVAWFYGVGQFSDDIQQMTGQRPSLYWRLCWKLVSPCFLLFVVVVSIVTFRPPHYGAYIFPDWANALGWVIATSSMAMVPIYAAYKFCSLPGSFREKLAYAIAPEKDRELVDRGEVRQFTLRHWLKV

[5] = Apparent permeability from basolateral to apical side of the MDCK cells expressing MDR1 gene; assay type: ADME, cell-based, Canis lupus familiaris; details: dog
[6] = Metabolic stability in human liver microsomes assessed as intrinsic clearance; assay type: ADME, Microsome
[7] = target: T1, Cytochrome P450 1A2 (Homo sapiens, UniProt P05177); experiment: Inhibition of CYP1A2; assay type: ADME
T1 sequence (P05177 whole entry): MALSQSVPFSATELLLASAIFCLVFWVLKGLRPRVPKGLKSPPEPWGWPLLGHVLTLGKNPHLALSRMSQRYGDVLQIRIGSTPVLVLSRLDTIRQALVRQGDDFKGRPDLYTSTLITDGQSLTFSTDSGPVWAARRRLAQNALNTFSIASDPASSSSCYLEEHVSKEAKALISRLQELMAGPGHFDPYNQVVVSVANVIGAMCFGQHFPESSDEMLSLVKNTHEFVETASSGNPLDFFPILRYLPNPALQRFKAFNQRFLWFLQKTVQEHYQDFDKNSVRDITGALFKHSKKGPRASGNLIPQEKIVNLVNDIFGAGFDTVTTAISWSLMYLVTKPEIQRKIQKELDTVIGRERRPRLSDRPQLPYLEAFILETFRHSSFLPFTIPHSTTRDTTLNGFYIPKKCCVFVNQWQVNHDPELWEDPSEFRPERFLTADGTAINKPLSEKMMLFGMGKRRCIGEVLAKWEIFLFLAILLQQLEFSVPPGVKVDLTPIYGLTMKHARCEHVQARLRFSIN

[8] = target: Cytochrome P450 2D6 (Homo sapiens, UniProt P10635); experiment: Inhibition of CYP2D6; assay type: ADME
Sequence of Cytochrome P450 2D6 (P10635 whole entry): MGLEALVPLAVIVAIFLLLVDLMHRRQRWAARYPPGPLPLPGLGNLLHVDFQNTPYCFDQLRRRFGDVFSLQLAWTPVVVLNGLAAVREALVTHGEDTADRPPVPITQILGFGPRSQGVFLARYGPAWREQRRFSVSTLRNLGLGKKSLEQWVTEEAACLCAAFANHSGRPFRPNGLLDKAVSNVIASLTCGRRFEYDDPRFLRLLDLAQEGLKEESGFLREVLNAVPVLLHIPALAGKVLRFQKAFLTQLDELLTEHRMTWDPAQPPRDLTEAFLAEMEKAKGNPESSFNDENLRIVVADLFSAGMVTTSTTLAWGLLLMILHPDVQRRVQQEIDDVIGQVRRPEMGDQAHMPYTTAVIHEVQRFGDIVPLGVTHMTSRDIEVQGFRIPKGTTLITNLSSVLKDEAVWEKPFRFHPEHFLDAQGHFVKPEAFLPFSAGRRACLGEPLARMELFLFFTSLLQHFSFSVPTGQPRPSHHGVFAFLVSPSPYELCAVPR

[9] = Inhibition of L type calcium channel
[10] = Distribution coefficient, log D at pH 7.4; assay type: physicochemical; details: octanol/water
[11] = Inhibition of sodium channel site 2
[12] = target: Sodium-dependent noradrenaline transporter (Homo sapiens, UniProt P23975); experiment: Inhibition of [3H]nisoxetine reuptake at human NET expressed in HEK293 cells by SPA; assay type: cell-based
Sequence of Sodium-dependent noradrenaline transporter (P23975 whole entry): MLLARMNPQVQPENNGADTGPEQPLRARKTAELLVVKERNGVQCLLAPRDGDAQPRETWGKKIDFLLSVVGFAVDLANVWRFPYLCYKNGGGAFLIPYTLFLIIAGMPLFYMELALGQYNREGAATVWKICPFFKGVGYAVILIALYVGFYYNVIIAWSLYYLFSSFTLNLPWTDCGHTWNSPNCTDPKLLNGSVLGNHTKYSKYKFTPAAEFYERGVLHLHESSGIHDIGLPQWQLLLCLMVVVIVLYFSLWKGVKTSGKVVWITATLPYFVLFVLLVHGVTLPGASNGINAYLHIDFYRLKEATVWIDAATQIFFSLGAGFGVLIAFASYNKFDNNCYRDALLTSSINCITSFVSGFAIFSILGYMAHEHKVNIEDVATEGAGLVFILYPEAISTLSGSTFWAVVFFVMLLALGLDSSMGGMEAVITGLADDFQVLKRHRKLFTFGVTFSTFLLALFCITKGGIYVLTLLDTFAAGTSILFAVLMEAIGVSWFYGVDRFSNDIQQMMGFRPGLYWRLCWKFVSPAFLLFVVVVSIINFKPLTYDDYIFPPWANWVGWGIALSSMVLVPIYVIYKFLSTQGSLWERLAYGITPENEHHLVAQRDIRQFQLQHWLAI

[13] = target: Voltage-gated inwardly rectifying potassium channel KCNH2 (Homo sapiens, UniProt Q12809); experiment: Displacement of [3H]dofetilide from human ERG channel
[14] = target: Cytochrome P450 3A4 (Homo sapiens, UniProt P08684); experiment: Inhibition of CYP3A4; assay type: ADME
Sequence of Cytochrome P450 3A4 (P08684 whole entry): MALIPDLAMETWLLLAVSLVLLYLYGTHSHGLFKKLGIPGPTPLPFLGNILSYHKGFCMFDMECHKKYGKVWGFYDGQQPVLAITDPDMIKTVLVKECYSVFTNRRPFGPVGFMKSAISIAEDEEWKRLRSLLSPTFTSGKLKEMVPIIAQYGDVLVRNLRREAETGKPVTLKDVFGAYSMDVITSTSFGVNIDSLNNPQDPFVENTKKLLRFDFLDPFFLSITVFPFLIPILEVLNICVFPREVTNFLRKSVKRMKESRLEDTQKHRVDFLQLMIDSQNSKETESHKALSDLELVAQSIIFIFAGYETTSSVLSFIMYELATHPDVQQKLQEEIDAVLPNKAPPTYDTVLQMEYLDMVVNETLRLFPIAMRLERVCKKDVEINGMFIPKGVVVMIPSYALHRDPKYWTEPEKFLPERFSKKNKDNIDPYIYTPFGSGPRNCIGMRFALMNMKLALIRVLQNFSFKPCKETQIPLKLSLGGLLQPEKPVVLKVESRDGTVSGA

[15] = target: Cytochrome P450 2C9 (Homo sapiens, UniProt P11712); experiment: Inhibition of CYP2C9; assay type: ADME
Sequence of Cytochrome P450 2C9 (P11712 whole entry): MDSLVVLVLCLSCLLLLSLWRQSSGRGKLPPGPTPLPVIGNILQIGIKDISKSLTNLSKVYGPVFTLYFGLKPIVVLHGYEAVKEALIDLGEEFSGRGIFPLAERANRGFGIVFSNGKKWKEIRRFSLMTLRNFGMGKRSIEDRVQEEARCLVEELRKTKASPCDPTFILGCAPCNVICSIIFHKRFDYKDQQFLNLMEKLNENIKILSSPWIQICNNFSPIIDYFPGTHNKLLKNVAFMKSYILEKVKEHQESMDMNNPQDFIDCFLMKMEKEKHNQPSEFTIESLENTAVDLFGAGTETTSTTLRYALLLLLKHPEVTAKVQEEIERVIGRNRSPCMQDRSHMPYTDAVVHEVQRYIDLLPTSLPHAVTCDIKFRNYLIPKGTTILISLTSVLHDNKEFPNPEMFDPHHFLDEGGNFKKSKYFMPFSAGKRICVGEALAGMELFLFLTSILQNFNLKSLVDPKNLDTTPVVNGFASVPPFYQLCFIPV

[16] = target: Sodium-dependent serotonin transporter (Homo sapiens, UniProt P31645); experiment: Inhibition of [3H]citalopram uptake at human 5HTT expressed in HEK293 cells by SPA; assay type: cell-based
Sequence of Sodium-dependent serotonin transporter (P31645 whole entry): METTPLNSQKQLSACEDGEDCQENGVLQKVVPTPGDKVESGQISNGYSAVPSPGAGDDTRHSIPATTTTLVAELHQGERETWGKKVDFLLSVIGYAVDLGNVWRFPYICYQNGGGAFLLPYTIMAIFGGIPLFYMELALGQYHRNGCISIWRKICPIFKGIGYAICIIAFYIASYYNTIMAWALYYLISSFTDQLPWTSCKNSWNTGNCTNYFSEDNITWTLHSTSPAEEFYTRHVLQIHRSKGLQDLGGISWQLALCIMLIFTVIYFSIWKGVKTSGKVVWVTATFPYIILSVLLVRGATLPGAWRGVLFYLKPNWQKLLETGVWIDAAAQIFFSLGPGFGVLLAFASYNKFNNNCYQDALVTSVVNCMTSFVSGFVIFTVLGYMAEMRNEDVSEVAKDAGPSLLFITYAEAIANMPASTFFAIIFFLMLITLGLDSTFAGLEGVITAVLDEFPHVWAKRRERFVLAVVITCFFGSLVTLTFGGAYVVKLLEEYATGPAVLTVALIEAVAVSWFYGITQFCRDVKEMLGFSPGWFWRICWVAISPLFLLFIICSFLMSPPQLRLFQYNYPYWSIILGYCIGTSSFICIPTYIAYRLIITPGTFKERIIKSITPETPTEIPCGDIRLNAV

[17] = tested on: Liver microsomes; experiment: Metabolic stability in human liver microsomes; assay type: ADME, Microsome
[18] = target: T2, 5-hydroxytryptamine receptor 2B (Homo sapiens, UniProt P41595); experiment: Activity at 5HT2B receptor
T2 sequence (P41595 whole entry): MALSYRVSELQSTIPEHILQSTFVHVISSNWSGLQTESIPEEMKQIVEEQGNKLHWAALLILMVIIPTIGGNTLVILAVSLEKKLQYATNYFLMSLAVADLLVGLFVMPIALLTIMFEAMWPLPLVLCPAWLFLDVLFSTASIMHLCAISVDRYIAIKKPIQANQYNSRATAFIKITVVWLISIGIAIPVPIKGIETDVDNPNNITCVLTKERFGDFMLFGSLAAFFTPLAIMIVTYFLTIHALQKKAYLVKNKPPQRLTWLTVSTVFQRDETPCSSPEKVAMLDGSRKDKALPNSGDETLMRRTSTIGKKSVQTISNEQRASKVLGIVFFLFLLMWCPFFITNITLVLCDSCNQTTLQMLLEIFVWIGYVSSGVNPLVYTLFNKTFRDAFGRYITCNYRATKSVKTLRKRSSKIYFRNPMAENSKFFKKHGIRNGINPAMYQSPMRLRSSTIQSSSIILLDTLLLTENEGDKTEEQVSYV

[19] = Apparent permeability from apical to basolateral side of the human Caco-2 membrane; assay type: ADME, cell-based
[20] = target: T3, 5-hydroxytryptamine receptor 2A (Homo sapiens, UniProt P28223); experiment: Inhibition of 5HT2A receptor at 10 uM
T3 sequence (P28223 whole entry): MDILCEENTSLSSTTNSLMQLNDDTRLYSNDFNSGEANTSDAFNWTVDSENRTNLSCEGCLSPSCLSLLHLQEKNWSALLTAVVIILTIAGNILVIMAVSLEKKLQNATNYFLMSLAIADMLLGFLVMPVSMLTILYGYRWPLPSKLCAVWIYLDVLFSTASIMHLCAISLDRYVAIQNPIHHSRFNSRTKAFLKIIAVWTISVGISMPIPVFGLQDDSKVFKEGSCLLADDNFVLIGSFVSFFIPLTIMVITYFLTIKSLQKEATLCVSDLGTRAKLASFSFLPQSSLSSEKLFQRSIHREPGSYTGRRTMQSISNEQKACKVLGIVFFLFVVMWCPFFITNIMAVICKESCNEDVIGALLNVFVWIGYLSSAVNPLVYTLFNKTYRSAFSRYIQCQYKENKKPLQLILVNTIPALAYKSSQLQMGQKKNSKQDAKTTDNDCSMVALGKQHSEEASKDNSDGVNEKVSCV

[21] = target: T3, 5-hydroxytryptamine receptor 2A; experiment: Activity at 5HT2A receptor
[22] = target: 5-hydroxytryptamine receptor 2C (Homo sapiens, UniProt P28335); experiment: Activity at 5HT2C receptor
Sequence of 5-hydroxytryptamine receptor 2C (P28335 whole entry): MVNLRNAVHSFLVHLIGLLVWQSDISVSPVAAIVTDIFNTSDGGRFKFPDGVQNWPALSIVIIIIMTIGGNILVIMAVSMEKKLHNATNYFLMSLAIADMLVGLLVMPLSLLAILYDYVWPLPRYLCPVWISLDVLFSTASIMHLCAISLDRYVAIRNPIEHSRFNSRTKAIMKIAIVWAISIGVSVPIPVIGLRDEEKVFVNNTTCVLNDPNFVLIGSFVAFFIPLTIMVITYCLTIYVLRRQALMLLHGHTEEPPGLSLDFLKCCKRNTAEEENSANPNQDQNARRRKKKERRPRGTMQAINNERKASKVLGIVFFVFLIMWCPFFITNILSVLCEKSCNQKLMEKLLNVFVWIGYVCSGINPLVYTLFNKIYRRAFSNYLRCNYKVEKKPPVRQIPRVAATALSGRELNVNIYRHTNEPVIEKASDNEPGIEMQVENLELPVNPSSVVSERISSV

[23] = target: T4, Muscarinic acetylcholine receptor M3 (Homo sapiens, UniProt P20309); experiment: Inhibition of muscarinic M3 receptor
[24] = target: T2, 5-hydroxytryptamine receptor 2B; experiment: Inhibition of 5HT2B receptor at 10 uM
[25] = tested on: Rattus norvegicus; experiment: Increase in noradrenaline level in interstitial fluid of sc dosed conscious rat prefrontal cortex relative to baseline; assay type: functional
[26] = target: 5-hydroxytryptamine receptor 2C (Homo sapiens) (UniProt P28335); experiment: Inhibition of 5HT2C receptor at 10 uM
Sequence of 5-hydroxytryptamine receptor 2C (Homo sapiens) (P28335 whole entry): as above

[27] = target: T4, Muscarinic acetylcholine receptor M3; experiment: Inhibition of muscarinic M3 receptor at 10 uM
[28] = tested on: Hepatocyte; experiment: Metabolic stability in human hepatocytes assessed as intrinsic clearance; assay type: ADME, cell-based, Liver
[29] = Inhibition of [3H]NA uptake at rat NET expressed in HEK293 cells; assay type: cell-based
[30] = Apparent permeability from basolateral to apical side of the human Caco-2 membrane; assay type: ADME, cell-based

SMILES: CC(C)C(=O)N(Cc1ccccc1-c1ccccc1)[C@H]1CCNC1
- pKa [1]: 9.4
- Papp A→B [2]: 11 ×10⁻⁶ cm/s
- efflux ratio [3]: 6.1
- Ki [4]: 3740 nM
- Papp B→A [5]: 68 ×10⁻⁶ cm/s
- microsomal CLint [6]: < 7 µL/min/mg
- IC50 [7]: > 3 µM
- IC50 [8]: 1860 nM
- Ki [9]: > 10000 nM
- logD [10]: 0.8
- Ki [11]: 1200 nM
- Ki [12]: 6 nM
- Ki [13]: 2840 nM
- IC50 [14]: > 3 µM
- IC50 [15]: > 3 µM
- Ki [16]: 960 nM

SMILES: O=CN(Cc1ccccc1-c1ccccc1)[C@H]1CCNC1
- Ki [4]: 2130 nM
- Ki [12]: 118 nM
- Ki [16]: 869 nM

SMILES: CCOC(=O)N(Cc1ccccc1SC)[C@H]1CCNC1
- Ki [12]: 89 nM
- Ki [16]: 353 nM

SMILES: CC(C)C(=O)N(Cc1ccccc1Oc1ccccc1)[C@H]1CCNC1
- Ki [4]: 3500 nM
- microsomal CLint [6]: 10 µL/min/mg
- Ki [12]: 34 nM
- Ki [16]: 229 nM

SMILES: O=S(=O)(N(Cc1ccccc1-c1ccccc1)[C@H]1CCNC1)C(F)(F)F
- Ki [4]: 2080 nM
- Ki [12]: 30 nM
- Ki [16]: 5280 nM

SMILES: CN(C)S(=O)(=O)N(Cc1ccccc1-c1ccccc1)[C@H]1CCNC1
- Papp A→B [2]: 17 ×10⁻⁶ cm/s
- efflux ratio [3]: 4
- Ki [4]: 2690 nM
- Papp B→A [5]: 68 ×10⁻⁶ cm/s
- microsomal CLint [6]: 16 µL/min/mg
- IC50 [8]: 840 nM
- Ki [12]: 8 nM
- Ki [16]: 3330 nM

SMILES: Clc1cccc(CN(C2CCOCC2)[C@H]2CCNC2)c1Cl
- t1/2 [17]: 100 min

SMILES: CCS(=O)(=O)N(Cc1ccccc1-c1ccccc1)[C@H]1CCNC1
- Ki [4]: 2760 nM
- microsomal CLint [6]: < 7 µL/min/mg
- IC50 [8]: 1890 nM
- Ki [12]: 5 nM
- Ki [16]: 5620 nM

SMILES: CCOC(=O)N(Cc1ccccc1-c1ccccc1)[C@H]1CCNC1
- EC50 [18]: > 10 µM
- Papp A→B [19]: 27 ×10⁻⁶ cm/s
- inhibition [20]: > 80%
- pKa [1]: 9.6
- Papp A→B [2]: 22 ×10⁻⁶ cm/s
- EC50 [21]: > 10 µM
- Ki [4]: 3030 nM
- EC50 [22]: > 10 µM
- Papp B→A [5]: 44 ×10⁻⁶ cm/s
- microsomal CLint [6]: < 7 µL/min/mg
- IC50 [7]: > 3 µM
- Ki [23]: 635 nM
- inhibition [24]: > 80%
- Activity [25]: 400%
- inhibition [26]: > 80%
- inhibition [27]: > 80%
- CL [28]: < 5 µL/min/mg
- IC50 [8]: 1210 nM
- Ki [9]: 1500 nM
- logD [10]: 1.1
- Ki [29]: 2.5 nM
- Ki [11]: 1100 nM
- Ki [12]: 8 nM
- Papp B→A [30]: 28 ×10⁻⁶ cm/s
- IC50 [14]: > 3 µM
- IC50 [15]: > 3 µM
- Ki [16]: 1110 nM

SMILES: O=C(N1CCCC1)N(Cc1ccccc1-c1ccccc1)[C@H]1CCNC1
- Papp A→B [2]: 2 ×10⁻⁶ cm/s
- efflux ratio [3]: 26
- Ki [4]: 4190 nM
- Papp B→A [5]: 53 ×10⁻⁶ cm/s
- Ki [12]: 27 nM

SMILES: CCC(=O)N(Cc1ccccc1-c1ccccc1)[C@H]1CCNC1
- microsomal CLint [6]: < 7 µL/min/mg
- Ki [12]: 30 nM
- Ki [16]: 2680 nM

SMILES: CCOC(=O)N(Cc1ccccc1-c1ccccc1)[C@@H]1CCNC1
- Ki [4]: 2910 nM
- microsomal CLint [6]: < 7 µL/min/mg
- IC50 [8]: 350 nM
- Ki [12]: 16 nM
- Ki [16]: 410 nM

SMILES: CC(C)CC(=O)N(Cc1ccccc1-c1ccccc1)[C@H]1CCNC1
- microsomal CLint [6]: 9 µL/min/mg
- Ki [12]: 30 nM
- Ki [16]: 415 nM

SMILES: CC(C)C(=O)N(Cc1ccccc1C(C)C)[C@H]1CCNC1
- Ki [4]: 3410 nM
- microsomal CLint [6]: < 7 µL/min/mg
- Ki [12]: 70 nM
- Ki [16]: 544 nM

SMILES: CC(C)C(=O)N(Cc1ccccc1C1CC1)[C@H]1CCNC1
- Ki [4]: 2920 nM
- Ki [12]: 74 nM
- Ki [16]: 124 nM

SMILES: c1ccc(-c2ccccc2CN[C@H]2CCNC2)cc1
- Ki [4]: 2470 nM
- Ki [12]: 271 nM
- Ki [16]: 1070 nM

SMILES: CS(=O)(=O)N(Cc1ccccc1Oc1ccccc1)[C@H]1CCNC1
- Ki [4]: 2550 nM
- Ki [12]: 96 nM
- Ki [16]: 2700 nM

SMILES: CCCS(=O)(=O)N(Cc1ccccc1-c1ccccc1)[C@H]1CCNC1
- Ki [4]: 2070 nM
- microsomal CLint [6]: 12 µL/min/mg
- IC50 [8]: 185 nM
- Ki [12]: 7 nM
- Ki [16]: 5680 nM

SMILES: CCOC(=O)N(Cc1ccccc1C(F)(F)F)[C@H]1CCNC1
- Ki [4]: 3210 nM
- Ki [12]: 46 nM
- Ki [16]: 427 nM
